Data taken from ChEMBL document CHEMBL4765323, “Design, synthesis, and biological evaluation of novel miconazole analogues containing selenium as potent antifungal agents” (Eur J Med Chem, 2020).
Converted amounts (≈) assume the structure as drawn.

Legend:
Type in all cases: functional
[1] = system: Candida albicans; test: Antifungal activity against fluconazole-resistant Candida albicans CaR measured after 24 hrs by micro-broth dilution assay
[2] = system: Candida albicans; test: Antifungal activity against Candida albicans ATCC SC5314 measured after 24 hrs by micro-broth dilution assay
[3] = system: Candida albicans; test: Antifungal activity against Candida albicans CPCC400616 measured after 24 hrs by micro-broth dilution assay
[4] = system: Candida albicans; test: Antifungal activity against fluconazole-resistant Candida albicans strain 904 measured after 24 hrs by micro-broth dilution assay
[5] = system: Candida albicans; test: Antifungal activity against Candida albicans 901 measured after 24 hrs by micro-broth dilution assay
[6] = system: Nakaseomyces glabratus; test: Antifungal activity against clinical isolate Candida glabrata measured after 24 hrs by micro-broth dilution assay
[7] = system: Pichia kudriavzevii; test: Antifungal activity against Candida krusei AS 2.1045 measured after 24 hrs by micro-broth dilution assay
[8] = system: Candida albicans; test: Antifungal activity against fluconazole-resistant Candida albicans 17 measured after 24 hrs by micro-broth dilution assay
[9] = system: Cryptococcus neoformans; test: Antifungal activity against Cryptococcus neoformans CGMCC2.3161 measured after 72 hrs by micro-broth dilution assay
[10] = system: Candida albicans; test: Antifungal activity against fluconazole-resistant Candida albicans 632 measured after 24 hrs by micro-broth dilution assay
[11] = system: [Candida] zeylanoides; test: Antifungal activity against Candida zeylanoides CMGCC2.3739 measured after 24 hrs by micro-broth dilution assay; conditions: Dujonia zeylanoides
[12] = system: Aspergillus fumigatus; test: Antifungal activity against Aspergillus fumigatus CGMCC 3.7795 measured after 72 hrs by micro-broth dilution assay
[13] = system: Candida parapsilosis; test: Antifungal activity against Candida parapsilosis ATCC 22019 measured after 24 hrs by micro-broth dilution assay; conditions: Lodderomyces parapsilosis

Compound | MIC [1] [µg/mL] | MIC [2] [µg/mL] | MIC [3] [µg/mL] | MIC [4] [µg/mL] | MIC [5] [µg/mL] | MIC [6] [µg/mL] | MIC [7] [µg/mL] | MIC [8] [µg/mL] | MIC [9] [µg/mL] | MIC [10] [µg/mL] | MIC [11] [µg/mL] | MIC [12] [µg/mL] | MIC [13] [µg/mL]
Clc1ccc(C[Se]C(Cn2ccnc2)c2ccc(Cl)cc2Cl)cc1 (stereo unspecified) | 16 (≈ 36 µM) | 0.03 (≈ 0.0675 µM) | 0.06 (≈ 0.135 µM) | > 128 | 8 (≈ 18 µM) | 1 (≈ 2.25 µM) | 0.5 (≈ 1.12 µM) | 8 (≈ 18 µM) | 0.25 (≈ 0.562 µM) | 64 (≈ 144 µM) | 8 (≈ 18 µM) | 2 (≈ 4.5 µM) | 0.5 (≈ 1.12 µM)
Fc1ccc(C(Cn2ccnc2)[Se]Cc2ccc(Br)cc2)c(F)c1 (stereo unspecified) | 64 (≈ 140 µM) | 0.13 (≈ 0.285 µM) | 0.25 (≈ 0.548 µM) | 2 (≈ 4.38 µM) | 2 (≈ 4.38 µM) | 2 (≈ 4.38 µM) | 1 (≈ 2.19 µM) | 2 (≈ 4.38 µM) | 0.5 (≈ 1.1 µM) | 8 (≈ 17.5 µM) | 0.25 (≈ 0.548 µM) | 1 (≈ 2.19 µM) | 0.25 (≈ 0.548 µM)
COc1cc(Br)c(C[Se]C(Cn2ccnc2)c2ccc(Cl)cc2Cl)cc1OC (stereo unspecified) | 128 (≈ 233 µM) | 0.03 (≈ 0.0546 µM) | 0.25 (≈ 0.455 µM) | 32 (≈ 58.3 µM) | 128 (≈ 233 µM) | 0.5 (≈ 0.91 µM) | > 128 | > 128 | 0.5 (≈ 0.91 µM) | > 128 | > 128 | 16 (≈ 29.1 µM) | > 128
Cc1cccc(C[Se]C(Cn2ccnc2)c2ccc(Cl)cc2Cl)c1 (stereo unspecified) | 4 (≈ 9.43 µM) | 0.03 (≈ 0.0707 µM) | 0.03 (≈ 0.0707 µM) | 2 (≈ 4.71 µM) | 2 (≈ 4.71 µM) | 0.5 (≈ 1.18 µM) | 4 (≈ 9.43 µM) | 4 (≈ 9.43 µM) | 0.25 (≈ 0.589 µM) | 2 (≈ 4.71 µM) | 16 (≈ 37.7 µM) | 8 (≈ 18.9 µM) | 1 (≈ 2.36 µM)
Cc1ccc(C[Se]C(Cn2ccnc2)c2ccc(F)cc2F)cc1 (stereo unspecified) | 16 (≈ 40.9 µM) | 0.06 (≈ 0.153 µM) | 0.25 (≈ 0.639 µM) | 4 (≈ 10.2 µM) | 1 (≈ 2.56 µM) | 1 (≈ 2.56 µM) | 2 (≈ 5.11 µM) | 2 (≈ 5.11 µM) | 0.5 (≈ 1.28 µM) | 16 (≈ 40.9 µM) | 0.5 (≈ 1.28 µM) | 1 (≈ 2.56 µM) | 0.25 (≈ 0.639 µM)
COc1cccc(C[Se]C(Cn2ccnc2)c2ccc(Cl)cc2Cl)c1 (stereo unspecified) | 2 (≈ 4.54 µM) | 0.06 (≈ 0.136 µM) | 0.06 (≈ 0.136 µM) | 1 (≈ 2.27 µM) | 1 (≈ 2.27 µM) | 0.25 (≈ 0.568 µM) | 1 (≈ 2.27 µM) | 4 (≈ 9.09 µM) | 0.13 (≈ 0.295 µM) | 2 (≈ 4.54 µM) | 1 (≈ 2.27 µM) | 2 (≈ 4.54 µM) | 0.13 (≈ 0.295 µM)
Cc1ccc(C[Se]C(Cn2ccnc2)c2ccc(Cl)cc2Cl)cc1C (stereo unspecified) | 128 (≈ 292 µM) | 4 (≈ 9.13 µM) | 0.25 (≈ 0.57 µM) | 128 (≈ 292 µM) | 32 (≈ 73 µM) | 0.5 (≈ 1.14 µM) | 128 (≈ 292 µM) | 8 (≈ 18.3 µM) | 0.5 (≈ 1.14 µM) | 16 (≈ 36.5 µM) | 128 (≈ 292 µM) | 4 (≈ 9.13 µM) | > 128
COc1ccc(C[Se]C(Cn2ccnc2)c2ccc(F)cc2F)cc1 (stereo unspecified) | 8 (≈ 19.6 µM) | 0.13 (≈ 0.319 µM) | 0.25 (≈ 0.614 µM) | 2 (≈ 4.91 µM) | 8 (≈ 19.6 µM) | 0.5 (≈ 1.23 µM) | 2 (≈ 4.91 µM) | 8 (≈ 19.6 µM) | 0.5 (≈ 1.23 µM) | 8 (≈ 19.6 µM) | 2 (≈ 4.91 µM) | 1 (≈ 2.46 µM) | 0.25 (≈ 0.614 µM)
Fc1ccc(C[Se]C(Cn2ccnc2)c2ccc(Cl)cc2Cl)cc1 (stereo unspecified) | 16 (≈ 37.4 µM) | 0.03 (≈ 0.0701 µM) | 0.03 (≈ 0.0701 µM) | 64 (≈ 149 µM) | 32 (≈ 74.7 µM) | 0.13 (≈ 0.304 µM) | 1 (≈ 2.34 µM) | 4 (≈ 9.34 µM) | 0.25 (≈ 0.584 µM) | 128 (≈ 299 µM) | 4 (≈ 9.34 µM) | 2 (≈ 4.67 µM) | 0.5 (≈ 1.17 µM)
Fc1ccc(C[Se]C(Cn2ccnc2)c2ccc(F)cc2F)cc1 (stereo unspecified) | 8 (≈ 20.2 µM) | 0.03 (≈ 0.0759 µM) | 0.06 (≈ 0.152 µM) | 8 (≈ 20.2 µM) | 4 (≈ 10.1 µM) | 1 (≈ 2.53 µM) | 1 (≈ 2.53 µM) | 32 (≈ 81 µM) | 0.5 (≈ 1.26 µM) | 32 (≈ 81 µM) | 1 (≈ 2.53 µM) | 2 (≈ 5.06 µM) | 0.25 (≈ 0.632 µM)
Cc1ccc(C[Se]C(Cn2ccnc2)c2ccc(F)cc2F)cc1C (stereo unspecified) | 128 (≈ 316 µM) | 0.13 (≈ 0.321 µM) | 0.5 (≈ 1.23 µM) | > 128 | 128 (≈ 316 µM) | 1 (≈ 2.47 µM) | 8 (≈ 19.7 µM) | 64 (≈ 158 µM) | 0.5 (≈ 1.23 µM) | > 128 | 1 (≈ 2.47 µM) | 2 (≈ 4.93 µM) | 1 (≈ 2.47 µM)
Fc1cccc(C[Se]C(Cn2ccnc2)c2ccc(Cl)cc2Cl)c1 (stereo unspecified) | 1 (≈ 2.34 µM) | 0.03 (≈ 0.0701 µM) | 0.03 (≈ 0.0701 µM) | 0.25 (≈ 0.584 µM) | 0.25 (≈ 0.584 µM) | 0.5 (≈ 1.17 µM) | 2 (≈ 4.67 µM) | 0.5 (≈ 1.17 µM) | 0.25 (≈ 0.584 µM) | 1 (≈ 2.34 µM) | 1 (≈ 2.34 µM) | 2 (≈ 4.67 µM) | 0.02 (≈ 0.0467 µM)
